Tests used:
[1] = pH 7.4
in vitro [2] = details: human, plasma
clinical = details: human, in vivo, iv
[3] = Ionisation constant (pKa); format: physicochemical
in vitro [4] = test: in vitro

| Compound | Fraction ionised [1] | fraction unbound (in vitro [2]) | Vd (clinical) | pKa [3] | fraction unbound (in vitro [4]; tissues) | fraction unbound (in vitro [4]) | chromatographic logD (physchem) |
| --- | --- | --- | --- | --- | --- | --- | --- |
| CNS(=O)(=O)Cc1ccc2[nH]cc(CCN(C)C)c2c1 | 0.992 | […] | 0.65 L/kg | 9.5 | 0.661 | – | – |
| O=C1Nc2ccc(Cl)cc2C(c2ccccc2Cl)=NC1O (racemic) [LORAZEPAM] | 0 | – | 1.3 L/kg | – | 0.029 | – | – |
| COc1ccc2[nH]c([S+]([O-])Cc3ncc(C)c(OC)c3C)nc2c1 (racemic) [OMEPRAZOLE] | 0 | – | 0.34 L/kg | Not Active | 0.082 | – | – |
| CCCC(=O)Nc1ccc(OCC(O)CNC(C)C)c(C(C)=O)c1 (stereo unspecified) [ACEBUTOLOL] | 0.995 | – | 1.2 L/kg | – | 0.273 | – | – |
| Oc1ncnc2[nH]ncc12 [ALLOPURINOL] | 0 | 0.95 | 0.6 L/kg | Not Active | 0.881 | – | – |
| Cc1nnc2n1-c1ccc(Cl)cc1C(c1ccccc1)=NC2 [ALPRAZOLAM] | 0 | – | 0.72 L/kg | – | 0.881 | – | – |
| C=CCc1ccccc1OCC(O)CNC(C)C (stereo unspecified) [ALPRENOLOL] | 0.992 | 0.24 | 3.4 L/kg | – | 0.028 | – | – |
| CCCCc1oc2ccccc2c1C(=O)c1cc(I)c(OCCN(CC)CC)c(I)c1 [AMIODARONE] | 0.955 | – | – | – | – | – | – |
| Cc1cc(=O)n(-c2ccccc2)n1C [ANTIPYRINE] | 0 | – | 0.6 L/kg | Not Active | 0.825 | – | – |
| CN1[C@@H]2CC[C@H]1C[C@@H](OC(=O)C(CO)c1ccccc1)C2 (stereo partly specified) [ATROPINE] | 0.996 | – | – | – | – | – | – |
| O=C1CN=C(c2ccccn2)c2cc(Br)ccc2N1 [BROMAZEPAM] | 0 | 0.3 | 0.91 L/kg | Not Active | 0.146 | – | – |
| Cn1c(=O)c2c(ncn2C)n(C)c1=O [CAFFEINE] | 0 | – | 0.61 L/kg | – | 0.543 | – | – |
| O=C(N[C@H](CO)[C@H](O)c1ccc([N+](=O)[O-])cc1)C(Cl)Cl [CHLORAMPHENICOL] | 0 | 0.47 | 0.94 L/kg | – | 0.225 | – | – |
| CN(C)CCC(c1ccc(Cl)cc1)c1ccccn1 (stereo unspecified) [CHLORPHENIRAMINE] | 0.986 | 0.3 | 3.2 L/kg | – | – | 0.037 | – |
| CN(C)CCCN1c2ccccc2Sc2ccc(Cl)cc21 [CHLORPROMAZINE] | 0.986 | 0.03 | 21 L/kg | – | – | 0.001 | – |
| CN/C(=N/CCSCc1nc[nH]c1C)NC#N [CIMETIDINE] | 0.271 | 0.81 | 1 L/kg | 6.97 | – | 0.374 | – |
| Clc1cccc(Cl)c1N=C1NCCN1 [CLONIDINE] | 0.817 | 0.8 | 2.1 L/kg | – | – | 0.158 | – |
| CN1CCN(C2=Nc3cc(Cl)ccc3Nc3ccccc32)CC1 [CLOZAPINE] | 0.629 | – | 5.4 L/kg | – | – | 0.004 | – |
| COC(=O)[C@H]1[C@@H](OC(=O)c2ccccc2)C[C@@H]2CC[C@H]1N2C [COCAINE] | 0.952 | 0.09 | 2 L/kg | – | 0.018 | – | – |

| Compound | Fraction ionised [1] | fraction unbound (in vitro [2]) | Vd (clinical) | pKa [3] | fraction unbound (in vitro [4]; tissues) | fraction unbound (in vitro [4]) | chromatographic logD (physchem) |
| --- | --- | --- | --- | --- | --- | --- | --- |
| COc1cc2c(c(OC)c1OC)-c1ccc(OC)c(=O)cc1[C@@H](NC(C)=O)CC2 [COLCHICINE] | 0 | – | 4.2 L/kg | – | – | – | 0.9 |
| CNCCCN1c2ccccc2CCc2ccccc21 [DESIPRAMINE] | 0.999 | – | 20 L/kg | – | – | 0.003 | – |
| C[C@@H]1C[C@H]2[C@@H]3CCC4=CC(=O)C=C[C@]4(C)[C@@]3(F)[C@@H](O)C[C@]2(C)[C@@]1(O)C(=O)CO [DEXAMETHASONE] | 0 | – | – | – | – | 0.182 | – |
| CN1C(=O)CN=C(c2ccccc2)c2cc(Cl)ccc21 [DIAZEPAM] | 0 | – | – | – | – | – | – |
| COc1ccc([C@@H]2Sc3ccccc3N(CCN(C)C)C(=O)[C@@H]2OC(C)=O)cc1 [DILTIAZEM] | 0.82 | – | 3.1 L/kg | – | 0.028 | – | – |
| CN(C)CCOC(c1ccccc1)c1ccccc1 [DIPHENHYDRAMINE] | 0.98 | – | – | – | – | – | – |
| CCCCCc1cc(O)c2c(c1)OC(C)(C)[C@@H]1CCC(C)=C[C@@H]21 [DRONABINOL] | 0 | 0.03 | 9.8 L/kg | – | 0.001 | – | 6.8 |
| CN1C[C@H](C(=O)N[C@]2(C)O[C@@]3(O)[C@@H]4CCCN4C(=O)[C@H](Cc4ccccc4)N3C2=O)C=C2c3cccc4[nH]cc(c34)C[C@H]21 [ERGOTAMINE] | 0.074 | 0.02 | 2.7 L/kg | – | 0.003 | – | 4.3 |
| C[C@]12CC[C@@H]3c4ccc(O)cc4CC[C@H]3[C@@H]1CC[C@@H]2O [ESTRADIOL] | 0 | 0.015 | 1.2 L/kg | – | 0.005 | – | – |
| CCOC(=O)C1=C(C)NC(C)=C(C(=O)OC)C1c1cccc(Cl)c1Cl (stereo unspecified) [FELODIPINE] | 0 | – | – | – | – | – | 4.52 |
| O=C(NCC1CCCCN1)c1cc(OCC(F)(F)F)ccc1OCC(F)(F)F (stereo unspecified) [FLECAINIDE] | 0.988 | 0.39 | 4.9 L/kg | – | 0.031 | – | – |
| OC(Cn1cncn1)(Cn1cncn1)c1ccc(F)cc1F [FLUCONAZOLE] | 0 | – | 0.6 L/kg | Not Active | 0.814 | – | – |
| O=C(CCCN1CCC(O)(c2ccc(Cl)cc2)CC1)c1ccc(F)cc1 [HALOPERIDOL] | 0.947 | – | 18 L/kg | – | – | 0.002 | – |
| CN(C)CCCN1c2ccccc2CCc2ccccc21 [IMIPRAMINE] | 0.992 | – | 18 L/kg | – | 0.002 | – | – |
| CCN(CC)CC(=O)Nc1c(C)cccc1C [LIDOCAINE] | 0.776 | – | – | – | – | – | – |
| CN1C(=O)C(O)N=C(c2ccccc2Cl)c2cc(Cl)ccc21 (stereo unspecified) [LORMETAZEPAM] | 0 | – | 6.8 L/kg | – | 0.007 | – | – |
| CCN(CC)CCNC(=O)c1cc(Cl)c(N)cc1OC [METOCLOPRAMIDE] | 0.988 | – | 3.4 L/kg | – | – | 0.07 | – |
| COCCc1ccc(OCC(O)CNC(C)C)cc1 (stereo unspecified) [METOPROLOL] | 0.995 | […] | 4.2 L/kg | – | – | 0.084 | – |
| Cc1ncc([N+](=O)[O-])n1CCO [METRONIDAZOLE] | 0 | 0.89 | 0.74 L/kg | Not Active | 0.609 | – | – |

| Compound | Fraction ionised [1] | fraction unbound (in vitro [2]) | Vd (clinical) | pKa [3] | fraction unbound (in vitro [4]; tissues) | fraction unbound (in vitro [4]) | chromatographic logD (physchem) |
| --- | --- | --- | --- | --- | --- | --- | --- |
| Cc1cccc(C)c1OCC(C)N (stereo unspecified) [MEXILETINE] | 0.981 | 0.37 | 4.9 L/kg | – | – | 0.03 | – |
| CN1CC[C@]23c4c5ccc(O)c4O[C@H]2[C@@H](O)C=C[C@H]3[C@H]1C5 [MORPHINE] | 0.858 | – | – | – | – | – | – |
| CN1CCC[C@H]1c1cccnc1 [NICOTINE] | 0.834 | – | 2.6 L/kg | – | – | 0.15 | 0.23 |
| COC(=O)C1=C(C)NC(C)=C(C(=O)OC)C1c1ccccc1[N+](=O)[O-] [NIFEDIPINE] | – | – | 0.78 L/kg | – | – | 0.023 | – |
| CN/C(=C\[N+](=O)[O-])NCCSCc1csc(CN(C)C)n1 [NIZATIDINE] | 0.134 | 0.78 | 1.2 L/kg | 6.59 | 0.0289 | – | – |
| CC(=O)O[C@H]1C(=O)[C@@]2(C)[C@H]([C@H](OC(=O)c3ccccc3)[C@]3(O)C[C@H](OC(=O)[C@H](O)[C@@H](NC(=O)c4ccccc4)c4ccccc4)C(C)=C1C3(C)C)[C@]1(OC(C)=O)CO[C@@H]1C[C@@H]2O [PACLITAXEL] | 0 | 0.03 | 2.4 L/kg | – | – | 0.005 | 4.45 |
| CC(=O)CCCCn1c(=O)c2c(ncn2C)n(C)c1=O [PENTOXIFYLLINE] | 0 | 1 | 4.2 L/kg | – | 0.095 | – | – |
| C[C@]12C=CC(=O)C=C1CC[C@@H]1[C@@H]2[C@@H](O)C[C@@]2(C)[C@H]1CC[C@]2(O)C(=O)CO [PREDNISOLONE] | 0 | 0.075 | 1.5 L/kg | – | – | 0.021 | – |
| C[C@]12C=CC(=O)C=C1CC[C@@H]1[C@@H]2C(=O)C[C@@]2(C)[C@H]1CC[C@]2(O)C(=O)CO [PREDNISONE] | 0 | 0.25 | 0.97 L/kg | – | 0.113 | – | – |
| CCN(CC)CCNC(=O)c1ccc(N)cc1 [PROCAINAMIDE] | 0.986 | – | – | – | – | – | – |
| CCCNCC(O)COc1ccccc1C(=O)CCc1ccccc1 (stereo unspecified) [PROPAFENONE] | 0.987 | – | – | – | – | – | – |
| CC(C)NCC(O)COc1cccc2ccccc12 (stereo unspecified) [PROPRANOLOL] | 0.991 | – | 4.3 L/kg | – | – | 0.012 | – |
| C=C[C@H]1C[N@@]2CC[C@H]1C[C@@H]2[C@@H](O)c1ccnc2ccc(OC)cc12 [QUINIDINE] | 0.817 | – | – | – | 0.019 | – | – |
| CNC(=C[N+](=O)[O-])NCCSCc1ccc(CN(C)C)o1 [RANITIDINE] | 0.922 | – | 1.3 L/kg | 8.47 | 0.289 | – | – |
| Cc1nc2n(c(=O)c1CCN1CCC(c3noc4cc(F)ccc34)CC1)CCCC2 [RISPERIDONE] | 0.764 | – | – | – | – | 0.042 | – |
| CC(C)(C)NCC(O)c1cc(O)cc(O)c1 (stereo unspecified) [TERBUTALINE] | 0.952 | – | 1.8 L/kg | – | 0.187 | – | – |
| O=c1n(CCCN2CCN(c3cccc(Cl)c3)CC2)nc2ccccn12 [TRAZODONE] | 0.197 | 0.07 | 1 L/kg | 6.79 | 0.03 | – | – |
| COc1cc(Cc2cnc(N)nc2N)cc(OC)c1OC [TRIMETHOPRIM] | 0.319 | 0.63 | 1.6 L/kg | – | – | 0.166 | – |

From ChEMBL document CHEMBL1135488, “Prediction of volume of distribution values in humans for neutral and basic drugs using physicochemical measurements and plasma protein binding data” (J Med Chem, 2002)
